Test results from the NIST ThermoML archive (doi:10.1021/je300827f).
Numbers after ± are expanded uncertainties.

Experiment: xn = mol fraction of the nth substance listed
Conditions: 101 kPa, Liquid; for viscosity: Capillary tube (Ostwald / Ubbelohde) method; for mass density: Vibrating tube method

OCCOCCO [diethylene glycol] + CC(C)O
Conditions | mass density, 298.15 K [kg/m3] | mass density, 303.15 K [kg/m3] | mass density, 308.15 K [kg/m3] | mass density, 313.15 K [kg/m3] | viscosity, 298.15 K [mPa·s] | viscosity, 303.15 K [mPa·s] | viscosity, 308.15 K [mPa·s] | viscosity, 313.15 K [mPa·s]
x1 = 0.0808 | 814.9 ± 0.2 | 810.2 ± 0.2 | 805.2 ± 0.2 | 800.5 ± 0.2 | 2.71 ± 0.11 | 2.54 ± 0.1 | 2.22 ± 0.09 | 1.9 ± 0.08
x1 = 0.1599 | 846.9 ± 0.2 | 841.8 ± 0.2 | 836.5 ± 0.2 | 831.7 ± 0.2 | 3.59 ± 0.15 | 3.38 ± 0.14 | 2.89 ± 0.12 | 2.52 ± 0.1
x1 = 0.2398 | 877.8 ± 0.2 | 872.4 ± 0.2 | 867 ± 0.2 | 862 ± 0.2 | 4.73 ± 0.19 | 4.35 ± 0.18 | 3.63 ± 0.15 | 3.25 ± 0.13
x1 = 0.3501 | 918.3 ± 0.2 | 912.7 ± 0.2 | 907.3 ± 0.2 | 902.2 ± 0.2 | 6.67 ± 0.27 | 5.93 ± 0.24 | 4.83 ± 0.2 | 4.41 ± 0.18
x1 = 0.4399 | 949.6 ± 0.2 | 943.9 ± 0.2 | 938.5 ± 0.2 | 933.4 ± 0.2 | 8.59 ± 0.35 | 7.44 ± 0.3 | 6 ± 0.24 | 5.49 ± 0.22
x1 = 0.5596 | 988.8 ± 0.2 | 983.3 ± 0.2 | 978.1 ± 0.2 | 973.1 ± 0.2 | 11.59 ± 0.47 | 9.8 ± 0.4 | 7.84 ± 0.32 | 7.09 ± 0.29
x1 = 0.6499 | 1016.8 ± 0.2 | 1011.5 ± 0.2 | 1006.4 ± 0.2 | 1001.4 ± 0.2 | 14.2 ± 0.57 | 11.84 ± 0.48 | 9.47 ± 0.38 | 8.44 ± 0.34
x1 = 0.7396 | 1043.2 ± 0.2 | 1038.2 ± 0.2 | 1033.4 ± 0.2 | 1028.8 ± 0.2 | 17.08 ± 0.69 | 14.1 ± 0.57 | 11.27 ± 0.46 | 9.89 ± 0.4
x1 = 0.8501 | 1073.9 ± 0.3 | 1069.5 ± 0.3 | 1065.2 ± 0.3 | 1061.1 ± 0.3 | 21.04 ± 0.85 | 17.19 ± 0.7 | 13.7 ± 0.55 | 11.84 ± 0.48
x1 = 0.9402 | 1097.4 ± 0.3 | 1093.8 ± 0.3 | 1089.8 ± 0.3 | 1086.2 ± 0.3 | 24.61 ± 1 | 19.94 ± 0.81 | 15.82 ± 0.64 | 13.58 ± 0.55
x1 = 1 | 1112.4 ± 0.3 | 1109.1 ± 0.3 | 1105.6 ± 0.3 | 1102.3 ± 0.3 | 27.15 ± 1.1 | 21.87 ± 0.89 | 17.26 ± 0.7 | 14.81 ± 0.6

OCCOCCO [diethylene glycol] + CCCCC(C)O
x1 = 1
Conditions | mass density [kg/m3] | viscosity [mPa·s]
298.15 K | 1112.4 ± 0.3 | 27.15 ± 1.1
303.15 K | 1109.1 ± 0.3 | 21.87 ± 0.89
308.15 K | 1105.6 ± 0.3 | 17.26 ± 0.7
313.15 K | 1102.3 ± 0.3 | 14.81 ± 0.6

CCCC(C)O (stereo not given) [pentan-2-ol] + OCCOCCO
x2 = 0
Conditions | mass density [kg/m3] | viscosity [mPa·s]
298.15 K | 805.4 ± 0.2 | 3.2 ± 0.13
303.15 K | 801.2 ± 0.2 | 2.8 ± 0.11
308.15 K | 796.6 ± 0.2 | 2.33 ± 0.09
313.15 K | 792.5 ± 0.2 | 1.99 ± 0.08

CCCCCC(C)O (stereo not given) [2-heptanol] + OCCOCCO
Conditions | mass density, 298.15 K [kg/m3] | mass density, 303.15 K [kg/m3] | mass density, 308.15 K [kg/m3] | mass density, 313.15 K [kg/m3] | viscosity, 298.15 K [mPa·s] | viscosity, 303.15 K [mPa·s] | viscosity, 308.15 K [mPa·s] | viscosity, 313.15 K [mPa·s]
x2 = 0 | 813.2 ± 0.1 | 809.3 ± 0.1 | 805 ± 0.2 | 801.1 ± 0.2 | 5.02 ± 0.2 | 4.15 ± 0.17 | 3.48 ± 0.14 | 2.85 ± 0.12
x2 = 0.0807 | 829.4 ± 0.2 | 825.2 ± 0.2 | 820.9 ± 0.2 | 817 ± 0.2 | 5.22 ± 0.21 | 4.45 ± 0.18 | 3.98 ± 0.16 | 3.04 ± 0.12
x2 = 0.1596 | 846.1 ± 0.2 | 841.8 ± 0.2 | 837.5 ± 0.2 | 833.5 ± 0.2 | 5.27 ± 0.21 | 4.66 ± 0.19 | 4.23 ± 0.17 | 3.21 ± 0.13
x2 = 0.2397 | 864.1 ± 0.2 | 859.8 ± 0.2 | 855.3 ± 0.2 | 851.2 ± 0.2 | 5.38 ± 0.22 | 4.89 ± 0.2 | 4.39 ± 0.18 | 3.42 ± 0.14
x2 = 0.3501 | 890.9 ± 0.2 | 886.5 ± 0.2 | 881.9 ± 0.2 | 877.7 ± 0.2 | 5.94 ± 0.24 | 5.44 ± 0.22 | 4.7 ± 0.19 | 3.87 ± 0.16
x2 = 0.4398 | 914.4 ± 0.2 | 910.1 ± 0.2 | 905.3 ± 0.2 | 901.2 ± 0.2 | 6.95 ± 0.28 | 6.21 ± 0.25 | 5.2 ± 0.21 | 4.45 ± 0.18
x2 = 0.5602 | 948.9 ± 0.2 | 944.5 ± 0.2 | 939.8 ± 0.2 | 935.5 ± 0.2 | 9.32 ± 0.38 | 7.87 ± 0.32 | 6.43 ± 0.26 | 5.64 ± 0.23
x2 = 0.6501 | 977.1 ± 0.2 | 972.8 ± 0.2 | 968.2 ± 0.2 | 963.9 ± 0.2 | 11.89 ± 0.48 | 9.69 ± 0.39 | 7.84 ± 0.32 | 6.89 ± 0.28
x2 = 0.7402 | 1007.7 ± 0.2 | 1003.6 ± 0.2 | 999.1 ± 0.2 | 994.9 ± 0.2 | 15.13 ± 0.61 | 12.04 ± 0.49 | 9.71 ± 0.39 | 8.46 ± 0.34
x2 = 0.8501 | 1048.8 ± 0.3 | 1044.9 ± 0.3 | 1040.6 ± 0.2 | 1036.6 ± 0.2 | 19.86 ± 0.8 | 15.65 ± 0.63 | 12.54 ± 0.51 | 10.82 ± 0.44
x2 = 0.9397 | 1085.7 ± 0.3 | 1082.1 ± 0.3 | 1078.4 ± 0.3 | 1074.6 ± 0.3 | 24.15 ± 0.98 | 19.2 ± 0.78 | 15.27 ± 0.62 | 13.1 ± 0.53

CCCCC(C)O (stereo not given) [2-hexanol] + OCCOCCO
Conditions | mass density, 298.15 K [kg/m3] | mass density, 303.15 K [kg/m3] | mass density, 308.15 K [kg/m3] | mass density, 313.15 K [kg/m3] | viscosity, 298.15 K [mPa·s] | viscosity, 303.15 K [mPa·s] | viscosity, 308.15 K [mPa·s] | viscosity, 313.15 K [mPa·s]
x2 = 0 | 810.1 ± 0.2 | 806.1 ± 0.2 | 802.1 ± 0.2 | 798 ± 0.2 | 4.1 ± 0.17 | 3.41 ± 0.14 | 2.82 ± 0.11 | 2.22 ± 0.09
x2 = 0.0809 | 828.8 ± 0.2 | 824.7 ± 0.2 | 820.3 ± 0.2 | 816.1 ± 0.2 | 4.24 ± 0.17 | 3.93 ± 0.16 | 3.13 ± 0.13 | 2.26 ± 0.09
x2 = 0.1597 | 847.7 ± 0.2 | 843.5 ± 0.2 | 839.1 ± 0.2 | 834.7 ± 0.2 | 4.39 ± 0.18 | 4.19 ± 0.17 | 3.38 ± 0.14 | 2.47 ± 0.1
x2 = 0.2398 | 867.8 ± 0.2 | 863.5 ± 0.2 | 858.9 ± 0.2 | 854.4 ± 0.2 | 4.71 ± 0.19 | 4.43 ± 0.18 | 3.66 ± 0.15 | 2.85 ± 0.12
x2 = 0.3501 | 896.9 ± 0.2 | 892.5 ± 0.2 | 887.8 ± 0.2 | 883.1 ± 0.2 | 5.69 ± 0.23 | 5.03 ± 0.2 | 4.24 ± 0.17 | 3.63 ± 0.15
x2 = 0.4398 | 921.9 ± 0.2 | 917.6 ± 0.2 | 912.7 ± 0.2 | 908.2 ± 0.2 | 7.07 ± 0.29 | 5.96 ± 0.24 | 4.99 ± 0.2 | 4.5 ± 0.18
x2 = 0.5602 | 957.6 ± 0.2 | 953.2 ± 0.2 | 948.4 ± 0.2 | 943.7 ± 0.2 | 9.89 ± 0.4 | 8 ± 0.32 | 6.49 ± 0.26 | 5.99 ± 0.24
x2 = 0.6501 | 985.9 ± 0.2 | 981.6 ± 0.2 | 976.9 ± 0.2 | 972.3 ± 0.2 | 12.69 ± 0.51 | 10.16 ± 0.41 | 8.04 ± 0.33 | 7.37 ± 0.3
x2 = 0.7403 | 1015.9 ± 0.3 | 1011.7 ± 0.3 | 1007.2 ± 0.3 | 1002.7 ± 0.2 | 16.04 ± 0.65 | 12.83 ± 0.52 | 9.96 ± 0.4 | 8.96 ± 0.36
x2 = 0.8502 | 1054.8 ± 0.3 | 1050.9 ± 0.3 | 1046.6 ± 0.3 | 1042.5 ± 0.3 | 20.63 ± 0.84 | 16.56 ± 0.67 | 12.76 ± 0.52 | 11.2 ± 0.45
x2 = 0.9398 | 1088.6 ± 0.3 | 1084.9 ± 0.3 | 1081.1 ± 0.3 | 1077.5 ± 0.3 | 24.55 ± 0.99 | 19.77 ± 0.8 | 15.38 ± 0.62 | 13.28 ± 0.54
